The values that follow come from ChEMBL document CHEMBL1201862, “PubChem BioAssay data set” (2004).

Common to all, as to experiment: NCI tumour cell line growth inhibition, 48 h
In assay [1] the test system is U-251.
The subject of assay [2] is NCI-H226.
Assay [3] relates to HCT-15.
For assay [4], the system named is HOP-62.
Assay [5] has as its system DMS-114.
In assay [6] the test system is TK-10.
The subject of assay [7] is OVCAR-5.
The subject of assay [8] is HCT-116.
Assay [9] has as its system OVCAR-3.
Assay [10] relates to SN12C.
For assay [11], the system named is SF-295.
The test system of assay [12] is OVCAR-4.
Assay [13] has as its system NCI-H460.
The test system of assay [14] is UACC-257.
For assay [15], the system named is SK-OV-3.
Assay [16] has as its system SW-620.
Assay [17] concerns UACC-62.
Assay [18] deals with A498.
Assay [19] relates to T47D.
Assay [20] has as its system MDA-MB-435.

Each structure is given as a SMILES string.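 Compound exposure: 48 hours, 5 concentrations, 96-well plates. Here, GI50 denotes the concentration required for 50% inhibition of growth.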 The source made the active and inactive calls. Cut-off read from the data, not from the text of the source: active = GI50 up to about 1.1 µM and inactive = higher. A value given as a limit tells only on which side of the number the result lay.

Take `Cc1ccc(S(=O)(=O)C(C#N)c2nc3ccccc3nc2-n2ccnc2)cc1` (stereo not given): the GI50 was > 100 µM (inactive) in assay [1]; 54.8 µM (inactive) in assay [2]; greater than 100 µM in assay [3]; > 100 µM (inactive) in [4]; > 100 µM (inactive) in assay [5]; > 100 µM (inactive) in [6]. Also, the GI50 in assay [7], in assay [8], in [9], in assay [10], in assay [11] and in assay [12] was > 100 µM (inactive) in each case. The GI50 in assay [13], in [14] and in [15] was > 100 µM (inactive) each time.
On to `O=c1c2ccccc2nc2n1-c1ccccc1SC2`, for which the GI50 in assay [1] is 84.7 µM (inactive); in [16], > 100 µM (inactive); in assay [17], 33.7 µM (inactive); in [3], 54.1 µM; in assay [4], > 100 µM (inactive); in assay [5] it was 34.7 µM (inactive). The GI50 was > 100 µM (inactive) in assay [6]; > 100 µM (inactive) in assay [7]; 47.2 µM (inactive) in [8]; 64.9 µM (inactive) in assay [9]; 51.2 µM (inactive) in assay [10]; > 100 µM (inactive) in assay [11]. The GI50 was 64.3 µM (inactive) in assay [12]; 40.2 µM (inactive) in assay [13]; 39.4 µM (inactive) in [14]; 47.9 µM (inactive) in [18]; > 100 µM (inactive) in assay [15].
Take `Cc1cc(C2CCCCC2)n(O)c(=O)c1` [CICLOPIROX OLAMINE]: the GI50 in assay [1] was 0.498 µM (active); in [16] it was 5.85 µM (inactive); in assay [17], 3.03 µM (inactive); in assay [3], 4.39 µM; in assay [5] it was 4.74 µM (inactive); in [6] it was 37.1 µM (inactive). Also, the GI50 in assay [7] is 8.28 µM (inactive); in assay [8], 3.7 µM (inactive); in assay [10] it was 12.5 µM (inactive); in assay [11], 3.81 µM (inactive); in assay [13] it was 2.32 µM (inactive); in assay [14], 1.62 µM (inactive). In addition, the results for the GI50 in assay [18] and in [15] were 14.7 µM (inactive) and 47 µM (inactive), respectively.
`COc1cc(C(=O)CC2(O)C(=O)Nc3c(Cl)cc(Cl)cc32)ccc1O` (stereo not given): the GI50 in assay [1] was 69 µM (inactive); in assay [16] it was 71.6 µM (inactive); in assay [2], 40 µM (inactive); in [3], 64 µM; in assay [4] it was 37.5 µM (inactive); in assay [5] it was 37.8 µM (inactive). Moreover, the GI50 is > 100 µM (inactive) in assay [6]; > 100 µM (inactive) in [7]; 46.3 µM (inactive) in assay [9]; > 100 µM (inactive) in assay [10]; 69.2 µM (inactive) in [11]; 60.8 µM (inactive) in assay [12]. Moreover, the GI50 in [13] is 75.7 µM (inactive); in assay [14], 43.6 µM (inactive); in assay [15] it was 14.9 µM (inactive).
In the case of `CCOC(=O)C(=O)Nc1c(C)cccc1CC`, the GI50 in assay [1], in [16], in assay [2], in assay [17], in assay [4] and in assay [5] was > 100 µM (inactive) each time. In addition, the GI50 in assay [6], in assay [7], in [8], in [9], in [10] and in assay [11] was > 100 µM (inactive) in each case. In addition, the GI50 in [12], in [13], in assay [14] and in assay [15] was > 100 µM (inactive) each time.
Regarding `CNS(=O)(=O)NNS(=O)(=O)c1ccc(C)cc1`, the GI50 in assay [16], in assay [17], in assay [4], in assay [5], in [6] and in assay [7] was > 100 µM (inactive) throughout. In addition, the GI50 in assay [8], in assay [9], in [10], in [11], in [12] and in [13] was > 100 µM (inactive) throughout. The GI50 in assay [14], in assay [18] and in assay [15] was > 100 µM (inactive) each time.
With `NC(=S)N/N=C(\CC1OC(=O)c2ccccc21)c1ccc(Cl)cc1` (stereo not given), the GI50 is 22.5 µM (inactive) in assay [1]; 44.8 µM (inactive) in assay [16]; 24.4 µM (inactive) in assay [2]; 19.6 µM (inactive) in assay [17]; 39.8 µM in [3]; 23.2 µM (inactive) in assay [4]. Also, the GI50 in assay [5] was 24.6 µM (inactive); in [6], 76.9 µM (inactive); in assay [7], 92.9 µM (inactive); in [8], 24.4 µM (inactive); in assay [9] it was 34.6 µM (inactive); in [10], 35.2 µM (inactive). For the same compound, the GI50 in [11] is 41.9 µM (inactive); in [12] it was 23.1 µM (inactive); in [13], 34.3 µM (inactive); in [14] it was 46.7 µM (inactive); in assay [15] it was 42.8 µM (inactive).
Consider `Cc1cc(OCC(O)CO)ccc1-c1ccccc1` (stereo not given), for which the GI50 is 54.3 µM (inactive) in assay [1]; 6.65 µM (inactive) in assay [16]; > 100 µM (inactive) in assay [2]; > 100 µM (inactive) in assay [17]; 37.2 µM in [3]; > 100 µM (inactive) in [5]. Also, the GI50 in [6] was > 100 µM (inactive); in [8], 77.3 µM (inactive); in [9], > 100 µM (inactive); in [10], > 100 µM (inactive); in [12] it was > 100 µM (inactive); in [13] it was > 100 µM (inactive). For the same compound, the GI50 in assay [14] was 52.5 µM (inactive); in assay [18], 11.4 µM (inactive).
For `C=CC1(C)/C(=N\O)C(C)(CC)C(=O)N1O` (stereo not given), the GI50 in assay [1] was > 100 µM (inactive); in [16], > 100 µM (inactive); in [17], > 100 µM (inactive); in assay [3], greater than 100 µM; in assay [4], > 100 µM (inactive); in [5], > 100 µM (inactive). Moreover, the GI50 in assay [6], in [7], in assay [8], in assay [9], in assay [10] and in assay [11] was > 100 µM (inactive) throughout. Moreover, the GI50 in assay [12], in assay [13], in [14], in assay [18] and in assay [15] was > 100 µM (inactive) throughout.
With `Cc1cccc(C)c1NC(=O)CCCC(=O)CC(=O)/C=C/c1ccccc1`, the GI50 was > 100 µM (inactive) in [1]; > 100 µM (inactive) in assay [16]; > 100 µM (inactive) in assay [17]; greater than 100 µM in [3]; > 100 µM (inactive) in [5]; > 100 µM (inactive) in assay [6]. The GI50 in [7], in assay [8], in assay [9], in assay [10], in assay [12] and in assay [13] was > 100 µM (inactive) throughout. In addition, the GI50 in assay [14], in assay [18] and in [15] was > 100 µM (inactive) in each case.
As for `CN(C)CC(C)(C)C(=O)/C=C/c1ccccc1`, the GI50 was 16.3 µM (inactive) in assay [1]; 14.5 µM (inactive) in assay [16]; 13.9 µM (inactive) in assay [2]; 13.2 µM (inactive) in assay [17]; 12.6 µM in assay [3]; 28.4 µM (inactive) in assay [4]. For the same compound, the GI50 in assay [5] was 14.2 µM (inactive); in [6] it was 18.2 µM (inactive); in [8], 13.5 µM (inactive); in assay [9] it was 17.5 µM (inactive); in assay [10], 13.3 µM (inactive); in assay [11], 17.5 µM (inactive). For the same compound, the GI50 is 14.2 µM (inactive) in [12], 13.9 µM (inactive) in [13], 12.8 µM (inactive) in [14] and 17 µM (inactive) in [18].
On to `COCOCC/C=C/C=O`, for which the GI50 in assay [1] was > 100 µM (inactive); in [16] it was > 100 µM (inactive); in assay [17], > 100 µM (inactive); in [3] it was greater than 100 µM; in [5], > 100 µM (inactive); in [6] it was > 100 µM (inactive). Besides, the GI50 in [7], in assay [8], in assay [9], in assay [10], in assay [11] and in assay [13] was > 100 µM (inactive) in each case. The GI50 in assay [14], in [18] and in assay [15] was > 100 µM (inactive) throughout.
Turning to `N=C(N)SC1c2ccccc2-c2cc([N+](=O)[O-])ccc21` (stereo not given), the GI50 is 2.75 µM (inactive) in assay [1]; 3.15 µM (inactive) in assay [16]; 7.53 µM (inactive) in [2]; 2.86 µM (inactive) in assay [17]; 4.48 µM in assay [3]; 6.56 µM (inactive) in assay [4]. For the same compound, the GI50 was 8.24 µM (inactive) in [6]; 9.95 µM (inactive) in [7]; 4.76 µM (inactive) in assay [8]; 2.69 µM (inactive) in assay [9]; 2.95 µM (inactive) in [19]; 8.51 µM (inactive) in assay [10]. In addition, the GI50 is 4.01 µM (inactive) in assay [11]; 5 µM (inactive) in [12]; 1.92 µM (inactive) in assay [20]; 3.93 µM (inactive) in assay [13]; 7.45 µM (inactive) in assay [14]; 3.62 µM (inactive) in assay [18]. The GI50 in assay [15] is 4.44 µM (inactive).
